Assay results taken from the NIST ThermoML archive (doi:10.1007/s10765-010-0886-6).
“And” between values parts separate entries of the source, which are not always exact repeats. Equal entries are not always repeated.

Settings: gamma-densimeter

Fc1cc(F)c(F)c(F)c1F [pentafluorobenzene]
mass density
Settings	Gas	Liquid
293.47 K	–	1525.2 kg/m3
314 K	1.13 kg/m3	1483.8 kg/m3
334 K	–	1441.8 kg/m3
353.98 K	–	1399.8 kg/m3
374.24 K	–	1353.6 kg/m3
393.95 K	15.9 kg/m3	1307.6 kg/m3
413.94 K	24.8 kg/m3 and 24.9 kg/m3	1257.5 kg/m3
413.95 K	24.7 kg/m3	–
433.98 K	38.6 kg/m3	1203 kg/m3
454.02 K	58.3 kg/m3	1142.5 kg/m3
473.98 K	87.1 kg/m3	1072.2 kg/m3
493.99 K	131.1 kg/m3	986.7 kg/m3
504.08 K	163.1 kg/m3	933.6 kg/m3
514.2 K	208.7 kg/m3	866.1 kg/m3
524.52 K	287.7 kg/m3	764.6 kg/m3

Settings	Critical temperature [K]
Liquid	531.04
